Assay results from patent publication US20070048370A1, “Pharmaceutical formulation for salts of monobasic acids with clopidogrel” (priority 2005, published 2007).
Read-outs that look alike come from different tables or passages of the source.

Procedure: The stability of clopidogrel besylate in the presence of various tabletting excipients was investigated. For this purpose, clopidogrel besylate was thoroughly triturated with the excipient in the ratio 1:1 and stored for two weeks at 40° C. and 75% relative humidity. The content of clopidogrel besylate in the sample was then determined.

Substance: 5-methyl-a-(4,5,6,7-tetrahydro[2,3-c]thienopyridyl)(2-chlorophenyl)acetate [Clopidogrel besylate]
- Clopidogrel besylate Residual content (%) (1:1 with AcDiSol, two weeks at 40° C. and 75% relative humidity): 94.00%
- Clopidogrel besylate Residual content (%) (1:1 with Lactose, two weeks at 40° C. and 75% relative humidity): 99.86%
- Clopidogrel besylate Residual content (%) (1:1 with Macrogol 6000, two weeks at 40° C. and 75% relative humidity): 90.07%
- Clopidogrel besylate Residual content (%) (1:1 with Mannitol, two weeks at 40° C. and 75% relative humidity): 99.85%
- Clopidogrel besylate Residual content (%) (1:1 with Mg-stearate, two weeks at 40° C. and 75% relative humidity): 51.99%
- Clopidogrel besylate Residual content (%) (1:1 with Microcrystalline cellulose, two weeks at 40° C. and 75% relative humidity): 99.24%
- Clopidogrel besylate Residual content (%) (1:1 with Silica, two weeks at 40° C. and 75% relative humidity): 99.44%
- Clopidogrel besylate Residual content (%) (1:1 with Stearic acid, two weeks at 40° C. and 75% relative humidity): 99.50%
- Clopidogrel besylate Residual content (%) (no excipient, stored two weeks at 40° C. and 75% relative humidity, content vs beginning of storage): 99.76%
- Compatibility with excipient (decomposition of the active substance) (with Macrogol 6000): incompatible
- Compatibility with excipient (decomposition of the active substance) (with Magnesium stearate): incompatible
- Compatibility with excipient (decomposition of the active substance) (with croscarmellose sodium (AcDiSol)): incompatible
- Compatibility with excipient (decomposition of the active substance) (with sodium lauryl sulfate): incompatible
